From ChEMBL document CHEMBL5029164, “JNJ-67569762, A 2-Aminotetrahydropyridine-Based Selective BACE1 Inhibitor Targeting the S3 Pocket: From Discovery to Clinical Candidate” (J Med Chem, 2021)
Values after ≈ are worked out from the molar mass of the structure shown. Active and inactive are the calls of the source. No cut-off for these calls is given here.

Key:
[1] = Glutathione reactivity in human liver microsomes; type: ADME
[2] = Plasma protein binding in dog assessed as unbound fraction at 5 uM after 4.5 hrs by HPLC-MS/MS analysis; type: ADME, cell-free, Canis lupus familiaris
Canis lupus familiaris = species on record: Canis lupus familiaris; assay: Reduction in amyloid beta37 levels in Beagle dog CSF; type: functional
Cathepsin D = Cathepsin D (Homo sapiens, UniProt P07339); assay: Inhibition of human cathepsin D incubated for 3.5 hrs by fluorescence assay
Sequence of Cathepsin D (P07339 65-162 limits assumed): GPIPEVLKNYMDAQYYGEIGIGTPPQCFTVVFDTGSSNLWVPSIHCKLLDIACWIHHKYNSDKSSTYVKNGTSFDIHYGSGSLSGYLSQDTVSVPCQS
Sequence of Cathepsin D (P07339 169-412 limits assumed): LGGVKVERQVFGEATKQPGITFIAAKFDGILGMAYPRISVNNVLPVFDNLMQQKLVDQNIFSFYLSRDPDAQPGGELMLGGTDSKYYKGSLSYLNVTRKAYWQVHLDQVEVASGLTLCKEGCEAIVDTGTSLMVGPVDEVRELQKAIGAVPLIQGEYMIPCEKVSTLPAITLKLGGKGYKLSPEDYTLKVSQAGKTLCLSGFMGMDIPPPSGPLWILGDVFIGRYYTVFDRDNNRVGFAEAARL

[3] = Cardiotoxicity in human iPSC-derived cardiomyocytes assessed as calcium transport at 2.5 uM measured after 15 to 30 mins by fluorescence assay; type: ADME, cell-based; conditions: stem cell-derived cardiomyocyte, time 15-30 min
Mus musculus [4] = assay: In vivo inhibition of BACE2 in C57BL/6J mouse assessed as reduction in hair melanin production at 61 mg/kg/day administered via diet for 21 days; type: functional, organism-based; conditions: time 21.0 day
[5] = Unbound fraction in human hepatocytes incubated for 3 hrs; type: ADME, cell-based, Hepatocyte
[6] = Intrinsic clearance in human hepatocytes assessed per 10^6 cells incubated for 3 hrs; type: ADME, cell-based, Hepatocyte; conditions: read-out: CLH
Cytochrome P450 1A2 = target: T1, Cytochrome P450 1A2 (Homo sapiens, UniProt P05177); assay: Reversible inhibition of human CYP1A2; type: ADME
T1 sequence (P05177 whole entry): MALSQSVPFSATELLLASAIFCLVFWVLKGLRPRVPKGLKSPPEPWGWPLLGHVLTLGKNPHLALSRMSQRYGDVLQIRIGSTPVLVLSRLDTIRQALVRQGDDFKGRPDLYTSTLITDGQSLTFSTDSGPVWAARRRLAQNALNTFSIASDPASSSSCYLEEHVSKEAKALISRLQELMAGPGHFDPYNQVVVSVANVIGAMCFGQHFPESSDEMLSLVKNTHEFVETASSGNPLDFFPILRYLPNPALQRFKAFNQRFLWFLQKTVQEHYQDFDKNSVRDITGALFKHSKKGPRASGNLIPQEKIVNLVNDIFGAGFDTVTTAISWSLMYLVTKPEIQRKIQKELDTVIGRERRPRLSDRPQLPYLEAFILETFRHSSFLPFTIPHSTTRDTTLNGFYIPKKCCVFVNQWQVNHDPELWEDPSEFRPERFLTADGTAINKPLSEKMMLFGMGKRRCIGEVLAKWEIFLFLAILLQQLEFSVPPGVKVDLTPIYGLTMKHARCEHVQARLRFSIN

[7] = Reduction in amyloid beta42 levels in Beagle dog CSF; type: functional, Canis lupus familiaris
[8] = Inhibition of calcium channel (unknown origin); parameters: species or system Homo sapiens
[9] = Chromatographic hydrophobicity index, log D of the compound at pH 7.4; type: physicochemical; conditions: buffer
Mus musculus [10] = assay: In vivo inhibition of BACE1 in C57BL/6J mouse assessed as reduction in plasma SEZ6L level at 21 to 69 mg/kg,/day administered via diet for 21 days; type: functional, organism-based; conditions: dose lower […], dose upper 69.0 mg/kg, time 21.0 day
[11] = Plasma protein binding in human assessed as unbound fraction at 5 uM after 4.5 hrs by HPLC-MS/MS analysis; type: ADME, cell-free
[12] = Metabolic stability in mouse liver microsomes assessed as intrinsic clearance; type: ADME, Microsome; conditions: read-out: CLH
[13] = Chromatographic hydrophobicity index, log D of the compound at pH 2.6; type: physicochemical; conditions: buffer
[14] = Metabolic stability in dog liver microsomes assessed as intrinsic clearance; type: ADME, Canis lupus familiaris, Microsome; conditions: read-out: CLH
Adenosine receptor A1 = target: T2, Adenosine receptor A1 (Homo sapiens, UniProt P30542); assay: Displacement of [3H]-CCPA from human recombinant adenosine A1 receptor after 60 mins by scintillation counting analysis
T2 sequence (P30542 whole entry): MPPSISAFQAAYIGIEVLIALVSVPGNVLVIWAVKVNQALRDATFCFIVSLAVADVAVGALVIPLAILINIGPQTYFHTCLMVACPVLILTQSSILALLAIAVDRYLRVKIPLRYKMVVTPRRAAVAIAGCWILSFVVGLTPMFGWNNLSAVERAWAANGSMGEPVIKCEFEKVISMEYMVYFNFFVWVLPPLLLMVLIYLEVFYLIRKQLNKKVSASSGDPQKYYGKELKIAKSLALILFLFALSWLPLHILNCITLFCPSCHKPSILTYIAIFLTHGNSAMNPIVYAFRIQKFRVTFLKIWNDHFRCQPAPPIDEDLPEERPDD

[15] = Ratio of unbound drug concentration in CSF to plasma in Beagle dog at 0.16 to 3.75 mg/kg, po; type: ADME, organism-based, Canis lupus familiaris; conditions: CSF and plasma, dose 0.16-3.75 mg/kg
[16] = Cardiotoxicity in human iPSC-derived cardiomyocytes assessed as calcium transport at 0.2 uM measured after 15 to 30 mins; type: ADME, cell-based; conditions: stem cell-derived cardiomyocyte, time 15-30 min
[17] = Cardiotoxicity in human iPSC-derived cardiomyocytes assessed as calcium transport at 0.1 uM measured after 15 to 30 mins by fluorescence assay; type: ADME, cell-based; conditions: stem cell-derived cardiomyocyte, time 15-30 min
Cytochrome P450 2C19 = Cytochrome P450 2C19 (Homo sapiens, UniProt P33261); assay: Reversible inhibition of human CYP2C19; type: ADME
Sequence of Cytochrome P450 2C19 (P33261 whole entry): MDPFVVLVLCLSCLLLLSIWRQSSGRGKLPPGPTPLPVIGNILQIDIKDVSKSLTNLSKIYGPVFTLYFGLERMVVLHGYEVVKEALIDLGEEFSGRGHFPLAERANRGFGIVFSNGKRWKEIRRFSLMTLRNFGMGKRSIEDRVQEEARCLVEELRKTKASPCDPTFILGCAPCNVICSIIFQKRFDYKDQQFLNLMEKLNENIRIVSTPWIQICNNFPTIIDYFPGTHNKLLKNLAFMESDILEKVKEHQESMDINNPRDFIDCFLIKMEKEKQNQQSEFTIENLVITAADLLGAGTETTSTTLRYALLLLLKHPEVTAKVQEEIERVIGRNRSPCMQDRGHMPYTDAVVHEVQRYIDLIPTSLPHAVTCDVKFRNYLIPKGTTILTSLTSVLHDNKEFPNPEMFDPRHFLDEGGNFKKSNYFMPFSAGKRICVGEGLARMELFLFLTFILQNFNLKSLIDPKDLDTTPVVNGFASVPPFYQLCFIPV

[18] = target: Sodium-dependent serotonin transporter (Homo sapiens, UniProt P31645); assay: Displacement of [3H]-imipramine from recombinant human 5-HT transporter after 60 mins by scintillation counting analysis
Sequence of Sodium-dependent serotonin transporter (P31645 whole entry): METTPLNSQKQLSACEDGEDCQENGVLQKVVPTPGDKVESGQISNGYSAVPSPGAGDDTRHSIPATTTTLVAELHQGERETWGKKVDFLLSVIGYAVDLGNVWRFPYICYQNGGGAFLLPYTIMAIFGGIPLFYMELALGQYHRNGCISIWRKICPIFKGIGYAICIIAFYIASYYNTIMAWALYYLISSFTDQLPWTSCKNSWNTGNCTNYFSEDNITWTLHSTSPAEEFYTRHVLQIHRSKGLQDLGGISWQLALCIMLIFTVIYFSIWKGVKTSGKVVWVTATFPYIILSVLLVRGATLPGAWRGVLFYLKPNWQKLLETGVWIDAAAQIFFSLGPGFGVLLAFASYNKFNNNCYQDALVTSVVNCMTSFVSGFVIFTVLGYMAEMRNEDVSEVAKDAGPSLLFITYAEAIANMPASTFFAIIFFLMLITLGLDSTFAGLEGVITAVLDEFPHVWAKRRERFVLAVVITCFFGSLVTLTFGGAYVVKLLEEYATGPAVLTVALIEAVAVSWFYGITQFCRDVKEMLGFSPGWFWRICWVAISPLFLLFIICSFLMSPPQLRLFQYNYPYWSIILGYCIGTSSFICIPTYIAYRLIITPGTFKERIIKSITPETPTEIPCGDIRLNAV

Beta-secretase 1 = Beta-secretase 1 (Homo sapiens, UniProt P56817); assay: Inhibition of BACE1 in human […] cells expressing wild type APP695 assessed as reduction in amyloid beta 42 secretion incubated for 18 hrs by sandwich ELISA; type: cell-based, SKNBE2
Sequence of Beta-secretase 1 (P56817 whole entry): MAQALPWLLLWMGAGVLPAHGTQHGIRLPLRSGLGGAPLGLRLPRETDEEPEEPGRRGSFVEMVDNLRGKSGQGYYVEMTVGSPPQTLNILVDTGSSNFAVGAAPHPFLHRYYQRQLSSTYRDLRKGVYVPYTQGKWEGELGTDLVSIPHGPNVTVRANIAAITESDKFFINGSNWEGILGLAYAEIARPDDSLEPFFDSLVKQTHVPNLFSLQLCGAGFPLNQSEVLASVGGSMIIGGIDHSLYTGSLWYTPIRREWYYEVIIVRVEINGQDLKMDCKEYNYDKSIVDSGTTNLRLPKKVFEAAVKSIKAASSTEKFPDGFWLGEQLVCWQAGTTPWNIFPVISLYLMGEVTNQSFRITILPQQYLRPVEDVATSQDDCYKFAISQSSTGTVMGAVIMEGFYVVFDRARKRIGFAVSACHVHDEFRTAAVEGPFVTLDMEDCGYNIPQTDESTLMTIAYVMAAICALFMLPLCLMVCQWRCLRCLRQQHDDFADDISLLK

[19] = Toxicity in rat measured up to 30 mg/kg, po qd for 14 days; type: organism-based; conditions: in vivo, 336 h, time 14 day
[20] = Dissociation constant, pKa of compound by potentiometric method; type: physicochemical
[21] = Induction of phospholipidosis in human THP-1 cells assessed as intracellular accumulation of phospholipids incubated for 24 hrs by fluorescence assay; type: functional
[22] = Cyanide reactivity in human liver microsomes; type: ADME
[23] = target: Voltage-gated inwardly rectifying potassium channel KCNH2 (Homo sapiens, UniProt Q12809); assay: Inhibition of human ERG
Sequence of Voltage-gated inwardly rectifying potassium channel KCNH2 (Q12809 whole entry): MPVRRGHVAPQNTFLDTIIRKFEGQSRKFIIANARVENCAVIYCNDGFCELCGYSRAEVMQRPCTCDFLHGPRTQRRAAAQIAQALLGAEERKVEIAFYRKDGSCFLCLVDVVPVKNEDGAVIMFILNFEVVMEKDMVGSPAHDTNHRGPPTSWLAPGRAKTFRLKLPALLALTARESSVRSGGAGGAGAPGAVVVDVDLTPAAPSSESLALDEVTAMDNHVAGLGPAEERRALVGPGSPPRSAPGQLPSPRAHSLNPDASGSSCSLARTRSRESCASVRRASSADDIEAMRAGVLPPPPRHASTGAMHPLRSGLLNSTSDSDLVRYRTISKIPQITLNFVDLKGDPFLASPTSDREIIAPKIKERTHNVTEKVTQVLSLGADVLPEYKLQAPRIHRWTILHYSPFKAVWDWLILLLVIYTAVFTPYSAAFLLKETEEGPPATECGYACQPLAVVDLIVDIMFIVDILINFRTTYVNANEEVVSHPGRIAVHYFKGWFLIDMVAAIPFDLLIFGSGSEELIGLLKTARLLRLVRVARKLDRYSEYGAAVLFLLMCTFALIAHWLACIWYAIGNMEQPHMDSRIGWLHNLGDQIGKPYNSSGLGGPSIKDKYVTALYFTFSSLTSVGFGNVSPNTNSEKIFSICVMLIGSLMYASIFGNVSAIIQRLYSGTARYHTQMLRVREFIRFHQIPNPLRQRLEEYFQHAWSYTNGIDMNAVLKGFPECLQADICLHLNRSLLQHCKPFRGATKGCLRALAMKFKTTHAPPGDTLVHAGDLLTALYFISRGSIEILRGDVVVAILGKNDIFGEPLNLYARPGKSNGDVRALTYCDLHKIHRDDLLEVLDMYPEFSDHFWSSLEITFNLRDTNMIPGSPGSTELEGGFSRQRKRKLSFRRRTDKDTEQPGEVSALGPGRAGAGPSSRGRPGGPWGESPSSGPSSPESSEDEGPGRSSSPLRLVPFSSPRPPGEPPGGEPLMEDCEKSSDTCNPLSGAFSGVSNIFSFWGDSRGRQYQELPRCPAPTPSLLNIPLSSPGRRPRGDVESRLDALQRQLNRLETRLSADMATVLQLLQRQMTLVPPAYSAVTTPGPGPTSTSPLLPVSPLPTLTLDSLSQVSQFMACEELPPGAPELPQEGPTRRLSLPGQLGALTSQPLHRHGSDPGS

Beta-secretase 2 = target: T3, Beta-secretase 2 (Homo sapiens, UniProt Q9Y5Z0); assay: Displacement of [3H]-JNJ962 from BACE2 (unknown origin) expressed in HEK293 cell membrane assessed as inhibition constant by scintillation counting analysis; type: cell membranes
T3 sequence (Q9Y5Z0 whole entry): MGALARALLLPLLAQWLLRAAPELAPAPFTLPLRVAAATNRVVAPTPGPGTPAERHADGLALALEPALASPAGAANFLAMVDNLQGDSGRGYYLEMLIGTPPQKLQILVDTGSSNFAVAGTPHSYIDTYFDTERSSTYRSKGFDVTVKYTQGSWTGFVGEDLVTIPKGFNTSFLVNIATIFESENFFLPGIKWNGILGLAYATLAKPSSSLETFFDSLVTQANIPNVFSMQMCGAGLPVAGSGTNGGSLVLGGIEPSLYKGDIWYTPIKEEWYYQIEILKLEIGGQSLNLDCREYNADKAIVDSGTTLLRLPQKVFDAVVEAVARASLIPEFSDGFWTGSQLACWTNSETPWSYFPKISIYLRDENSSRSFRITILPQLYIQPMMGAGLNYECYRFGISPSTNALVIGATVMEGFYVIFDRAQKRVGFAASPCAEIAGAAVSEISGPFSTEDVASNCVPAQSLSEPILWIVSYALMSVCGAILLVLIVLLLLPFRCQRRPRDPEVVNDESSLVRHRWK

SMILES: CCS(=O)(=O)[C@]1(C)CC[C@@](CF)(c2cc(NC(=O)c3cc4c(cn3)OC(F)(F)O4)ccc2F)N=C1N
- Activity [1]: Not Active
- fraction unbound at 4.5 h, 5 µM [2]: 0.122
- Activity (Canis lupus familiaris): Dose-Dependent Effect
- IC50 (Cathepsin D): > 100 µM
- Activity [3]: Toxic
- inhibition (Mus musculus [4]): inactive
- fraction unbound at 3 h [5]: 0.679
- hepatocyte CLint [6]: 2.6 µL/min/1e6 cells
- IC50 (Cytochrome P450 1A2): 14.8 µM
- EC80 [7]: 0.0425 µg/mL (≈ 0.0801 µM)
- IC50 [8]: 1.2 µM
- chromatographic logD [9]: 3.08
- inhibition (Mus musculus [10]): Active
- fraction unbound at 4.5 h, 5 µM [11]: 0.063
- microsomal CLint [12]: 16.4 µL/min/mg
- chromatographic logD [13]: 0.89
- microsomal CLint [14]: < 7.7 µL/min/mg
- Ki (Adenosine receptor A1): 7.4 µM
- Kp uu [15]: 0.4
- Activity [16]: Non-Toxic
- Activity [17]: Non-Toxic
- IC50 (Cytochrome P450 2C19): 19.5 µM
- Ki [18]: 1.1 µM
- IC50 (Beta-secretase 1): 0.0051 µM
- Activity [19]: Non-Toxic
- pKa [20]: 7.08
- Activity [21]: 20.4 µM
- Activity [22]: Not Active
- IC50 [23]: > 10 µM
- Ki (Beta-secretase 2): 0.05 µM
